{"source": "patent US10519107B2", "about": "“Sulfonamide compounds and their use as STAT5 inhibitors” (Governing Council of the University of Toronto, priority 2014, dated 2019)", "key": {"[1]": {"assay": "Metabolic stability in mouse hepatocytes", "type": "in vitro ADME", "conditions": "120 min", "procedure": "13a was then evaluated within intact human and mouse hepatocytes. Like the s9 fractions, Verapamil was used as a positive control in the assay. Cryopreserved hepatocytes were thawed and plated to a working cell density of 0.5×10^6 viable cell/mL."}, "[2]": {"system": "MV-4;11 (FLT3-ITD) AML cells", "assay": "CellTiter-Blue cell viability assay, MV-4;11", "type": "cell-based, Human", "procedure": "(§1) Human erythroleukemia K562 and MV-4-11 cells were cultured in Iscove's modified dulbecco's medium (Gibco) supplemented with 10% FBS (Sigma). Breast carcinoma lines MDA-MB-231 and MDA-MB-468 were grown in dulbecco's modified eagles medium (DMEM) supplemented with 10% FBS (sigma). For downregulation of STAT5 activity, cells were treated with 5, 10, 15, 20 μM of 13a-d STAT5 compounds, for 3 h and 5 h time points. As a control, cells were treated with the DMSO alone.\nCell viability was assessed following treatment at various concentrations of inhibitor (0.78-50 μM) using a CellTiter-Blue cell viability assay (72 hours)."}, "[3]": {"system": "pSTAT5", "assay": "Western blotting of pSTAT5 in MV-4;11 cells", "type": "cell-based, Human", "excerpt": "Correspondingly, western blot analysis for protein levels of pSTAT5 and downstream target gene expression were also investigated within the AML cell line, MV-4; 11."}, "[4]": {"system": "healthy human CD34+ umbilical cord cells", "assay": "Cell viability, healthy CD34+ umbilical cord cells", "type": "cell-based"}, "[5]": {"system": "MCL-1, MYC, cleaved PARP-1, Caspase-3", "assay": "Western blotting of apoptosis markers and STAT5 transcriptional targets in K562 cells", "quoted_text": "Proteins were extracted using RIPA buffer with protease and phosphates inhibitors and a careful protein determination were preformed (BCA protein assay kit, Pierce). […] The membranes were blocked with 5% nonfat milk for at least 1 h followed by an overnight incubation in primary antibody.\nDownstream of STAT5, modulation of the STAT5 transcriptional targets, MCL-1, CYCLIND1/D2 and MYC was assessed."}, "[6]": {"type": "in vitro ADME", "conditions": "mouse", "excerpt": "Within these studies, a series of phase I and phase II metabolites within mouse hepatocytes were identified. […] Each peak from the initial mass spectrum is rerun through a tandem mass spec to identify the major peak along with the corresponding fractionation patterns of that metabolite. […] Peak 2 on the other hand is a combination of both phase I and phase II metabolism. […] Most likely, we deduced the acetylation is occurring at the acid position of the salicylic acid moiety, FIG. 11.\nBased on the fragmentation pattern, the most likely site of oxidation could reside on the glycine core or the benzyl ring of the salicylic acid, FIG. 12."}, "[7]": {"system": "phosphorylated STAT5 (Y694)", "assay": "Western blotting of pSTAT5 in K562 cells", "type": "cell-based, Human", "conditions": "K562, 5 hrs", "procedure": "as §1"}, "[8]": {"molecular_target": "T1, wildtype STAT1 protein (Homo sapiens, UniProt P42224)", "T1 sequence (P42224 1-750)": "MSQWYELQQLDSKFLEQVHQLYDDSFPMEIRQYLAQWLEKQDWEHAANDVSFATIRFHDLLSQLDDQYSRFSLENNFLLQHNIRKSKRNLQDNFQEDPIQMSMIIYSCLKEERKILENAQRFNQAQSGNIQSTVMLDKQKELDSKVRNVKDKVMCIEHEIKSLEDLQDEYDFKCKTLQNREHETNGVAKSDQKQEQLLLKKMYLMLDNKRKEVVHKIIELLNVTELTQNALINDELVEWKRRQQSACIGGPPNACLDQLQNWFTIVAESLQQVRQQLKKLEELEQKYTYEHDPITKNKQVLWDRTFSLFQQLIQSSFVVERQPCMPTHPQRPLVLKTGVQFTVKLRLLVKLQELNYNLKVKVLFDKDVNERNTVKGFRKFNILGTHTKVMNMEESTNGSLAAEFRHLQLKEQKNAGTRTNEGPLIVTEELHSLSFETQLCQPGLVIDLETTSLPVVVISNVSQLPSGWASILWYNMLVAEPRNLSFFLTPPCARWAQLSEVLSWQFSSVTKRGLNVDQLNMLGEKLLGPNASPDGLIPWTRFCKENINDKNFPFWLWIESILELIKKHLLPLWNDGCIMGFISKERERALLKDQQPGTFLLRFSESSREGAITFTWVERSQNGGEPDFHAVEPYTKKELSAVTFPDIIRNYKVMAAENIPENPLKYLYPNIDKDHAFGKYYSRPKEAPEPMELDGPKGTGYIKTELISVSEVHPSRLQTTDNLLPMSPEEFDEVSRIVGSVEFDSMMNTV", "assay": "Fluorescence polarization competitive binding, STAT1", "conditions": "FP; read-out: IC50, disruption of phosphopeptide-STAT1 complex"}, "[9]": {"system": "120 representative kinases (incl. JAK 1/2, ABL, FLT-3)", "assay": "KINOMEscan (DiscoverX) kinase profiling", "type": "binding", "conditions": "5 μM, 120 kinases incl. JAK 1/2, ABL, qPCR", "procedure": "KINOMEscan kinase profiling was performed as previously described (Fabian et al., 2005; Karaman et al., 2008). For most assays, kinase-tagged T7 phage strains were grown in parallel in 24-well blocks in an E. coli host derived from the BL21 strain. E. coli were grown to log-phase and infected with T7 phage from a frozen stock (multiplicity of infection=0.4) and incubated with shaking at 32° C. until lysis (90-150 minutes). The lysates were centrifuged (6,000×g) and filtered (0.2 μm) to remove cell debris. The remaining kinases were produced in HEK-293 cells and subsequently tagged with DNA for qPCR detection as previously described (Wodicka et al., 2010). […] The liganded beads were blocked with excess biotin and washed with blocking buffer (SeaBlock (Pierce), 1% BSA, 0.05% Tween 20, 1 mM DTT) to remove unbound ligand and to reduce non-specific phage binding. […] All reactions were performed in polypropylene 384-well plates in a final volume of 0.04 ml. […] The kinase concentration in the eluates was measured by qPCR and the data presented as % Ctrl (FIG. 1)."}, "[10]": {"molecular_target": "T2, STAT5", "T2 construct": "rows headed: KD (koff/kon) STAT5", "conditions": "SPR, 25° C., Langmuir 1:1 binding model; read-out: KD (koff/kon) STAT5", "procedure": "Interactions of His-tagged STAT3 and STAT5 with small molecules were investigated using SPR spectroscopy. The binding experiments were carried on a ProteOn XPR36 (Bio-Rad) biosensor at 25° C. using the HTE sensor chip (Bio-Rad, Ontario, Canada). The flow cells of the sensor chip were loaded with a nickel solution at 30 μL/min for 120 s to saturate the Tris-NTA surface with Ni(II) ions. […] When the injection of the compounds was completed, running buffer was allowed to flow over the immobilized substrates for the non-specifically bound inhibitors to dissociate for 600 s. Following dissociation of the compounds, the chip surface was regenerated with an injection of 1 M NaCl at a flow rate of 100 μL/min for 18 s. Interspot channel reference was used for non-specific binding corrections and the blank channel used with each analyte injection served as a double reference to correct for possible baseline drift. Data were analysed using ProteOn Manager Software version 3.1."}}, "note": "“Also recorded” adds a separate entry of the source.", "data": [{"smiles": "CC(C)(C)c1cc(CN(C(=O)CN(Cc2ccc(Cl)cc2)S(=O)(=O)c2c(F)c(F)c(F)c(F)c2F)c2ccc(C(=O)O)c(O)c2)cc(C(C)(C)C)c1", "note": "[Compound 13a, 4-(2-((N-(4-chlorobenzyl)-2,3,4,5,6-pentafluorophenyl)sulfonamido)-N-(3,5-di-tert-butylbenzyl)acetamido)-2-hydroxybenzoic Acid]", "values": [{"measurement": "recovered in mouse hepatocytes", "setting": "[1]", "value": 53.37, "unit": "%"}, {"measurement": "recovered in boiled mouse hepatocytes (negative control)", "setting": "[1]; boiled hepatocytes", "value": "~85", "unit": "%"}, {"measurement": "effect on MV-4;11 cells", "setting": "[2]; 10 μM", "value": "abolished"}, {"measurement": "IC50", "setting": "[2]; Homo sapiens, MV4-11, 72 hours, CellTiter-Blue", "value": 3.5, "unit": "µM"}, {"measurement": "pSTAT5 level", "setting": "[3]; MV-4;11, 5 h", "value": "dose-dependent decrease"}, {"measurement": "pSTAT5 phosphorylation", "setting": "[3]; MV-4;11, 24 h, 10 μM", "value": "complete ablation"}, {"measurement": "effect on cell viability of healthy CD34+ cells", "setting": "[4]; 10 μM", "value": "little reduction in cell viability; also recorded: little effect"}, {"measurement": "difference in sensitivity CD34+ vs MV-4;11 cells", "setting": "[4]; therapeutic window", "value": "approximate order of magnitude difference"}, {"measurement": "MYC (c-MYC) expression", "setting": "[5]; K562, 5 hrs", "value": "dose-dependant decreases; also recorded: dose-dependent decreases"}, {"measurement": "MCL-1 expression", "setting": "[5]; K562, 24 hrs, 15 μM", "value": "complete knockdown"}, {"measurement": "apoptosis (cleaved PARP-1, Caspase-3)", "setting": "[5]; K562, 24 hrs, 15 μM", "value": "undergo cell death"}, {"measurement": "intact compound recovered", "setting": "[6]; 240 min", "value": "majority of intact 13a is recovered"}, {"measurement": "glutathione derivatives, collective share of metabolites recovered", "setting": "[6]; 4 h", "value": 10, "unit": "%"}, {"measurement": "parent compound recoverable", "setting": "[6]; 4 h", "value": "> 85", "unit": "%"}, {"measurement": "levels of phosphorylated STAT5 (Y694)", "setting": "[7]", "value": "decreased pSTAT5 in a dose dependant manner and ablated pSTAT5 above 10 μM"}, {"measurement": "total STAT5 concentration or cleavable PARP-1", "setting": "[7]", "value": "no change"}, {"measurement": "IC50", "setting": "[8]", "value": "> 150", "unit": "µM"}, {"measurement": "effects against the bank of kinases", "setting": "[9]", "value": "negligible effects"}, {"measurement": "Kd", "setting": "[10]", "value": "0.0419 ± 0.004", "unit": "µM"}]}]}
